Source: US20160317632A1, “USE OF CBP/EP300 BROMODOMAIN INHIBITORS FOR CANCER IMMUNOTHERAPY” (GENENTECH, INC., priority 2013, published 2016)

Experiments:
Type in all cases: cell-based, human
[1] = test system: iTreg cells; test: Foxp3 expression in iTreg differentiating cells by q-RT-PCR (FIG. 7)
Description: (§1) Naïve CD4+CD45RA+ T cells were isolated from healthy human PBMCs using Miltenyi Biotec naïve human T cell isolation kit (cat#130-094-131). Isolated cells were cultured at 10e6 cells/ml under iTreg-differentiation conditions using Dynabeads (Invitrogen; cat#11132D) at 1:1 ratio of beads to cells+human recombinant IL-2 (10 ng/ml) (R&D, cat#202-IL-010)+human recombinant TGFb (10 ng/ml) (Invitrogen; cat# PHG9204). After 16 hours the CBP inhibitors CBP/EP300(3) and CBP/EP300(4) were added using DMSO as control. CD8+ T cells were isolated from healthy human PBMCs using Militenyi Biotec human CD8 T cell isolation kit (cat#130-095-236) and cultured at 10e6 cells/ml with human T activator Dynabeads at 1:1 ratio of cells to cells with the addition of 10 ng/ml of recombinant human IL-2. 3 days after CD8+ T cell stimulation supernatants were collected and analyzed for CD8+ T cell associated effector function cytokines IFNg and TNFα by Luminex. […]
3 days after CD8+ T cell stimulation mRNA was extracted using mRNA Catcher™ PLUS Purification Kit (Invitrogen; K1570-02). Gene expression of Lag3, CTLA4 and TIM3, genes encoding inhibitory receptors on the surface of CD8+ T cells and under the transcriptional control of CBP/p300, was analyzed by q-RT-PCR. Foxp3 expression and Granzyme B (GZMB) expression, a gene encoding effector function of CD8+ T cells, were also analyzed by q-RT-PCR. […]

[2] = test system: iTreg cells; test: Foxp3 protein expression in iTreg cells by flow cytometry (FIG. 8); conditions: 4 days after stimulation
Description: as §1
Cells from iTreg cultures were first stained with CD4 APC-CY7 and CD25 Pacific blue (both from BD pharmigen, cat#557811 and 560355, respectively); this was followed by fixation/permeabilization step and staining for intracellular Foxp3 FITC using human Foxp3 staining kit (eBioscience; cat#77-5774-40) according to the manufacturer protocol. FOXP3 expression by FACS was typically measured 4 d post-activation.

[3] = test system: CD8+ T cells; test: gene expression in stimulated CD8+ T cells by q-RT-PCR (FIGS. 9-10); conditions: for expression of LAG3, TIM3 and CTLA4: FIG. 9; for GZMB expression (effector function of CD8+ T cells): FIG. 10
Description: (§2) Naïve CD4+CD45RA+ T cells were isolated from healthy human PBMCs using Miltenyi Biotec naïve human T cell isolation kit (cat#130-094-131). Isolated cells were cultured at 10e6 cells/ml under iTreg-differentiation conditions using Dynabeads (Invitrogen; cat#11132D) at 1:1 ratio of beads to cells+human recombinant IL-2 (10 ng/ml) (R&D, cat#202-IL-010)+human recombinant TGFb (10 ng/ml) (Invitrogen; cat# PHG9204). After 16 hours the CBP inhibitors CBP/EP300(3) and CBP/EP300(4) were added using DMSO as control. CD8+ T cells were isolated from healthy human PBMCs using Militenyi Biotec human CD8 T cell isolation kit (cat#130-095-236) and cultured at 10e6 cells/ml with human T activator Dynabeads at 1:1 ratio of cells to cells with the addition of 10 ng/ml of recombinant human IL-2. 3 days after CD8+ T cell stimulation supernatants were collected and analyzed for CD8+ T cell associated effector function cytokines IFNg and TNFα by Luminex. Data in FIG. 10 show IFNγ (A) and TNFα (B) (pg/ml) secreted in the supernatants of CD8+ T cells stimulated with compounds CBP/EP300(3) and CBP/EP300(4), using DMSO as control.
3 days after CD8+ T cell stimulation mRNA was extracted using mRNA Catcher™ PLUS Purification Kit (Invitrogen; K1570-02). Gene expression of Lag3, CTLA4 and TIM3, genes encoding inhibitory receptors on the surface of CD8+ T cells and under the transcriptional control of CBP/p300, was analyzed by q-RT-PCR. Foxp3 expression and Granzyme B (GZMB) expression, a gene encoding effector function of CD8+ T cells, were also analyzed by q-RT-PCR. Beta-2-microglobulin (B2M) was used as house-keeping gene.

[4] = test system: CD8+ T cells; test: IFNγ and TNFα in supernatants of stimulated CD8+ T cells by Luminex; conditions: supernatants 3 days after stimulation
Description: as §2

C[C@H]1Nc2c(cccc2C(=O)NCCCN2CCOc3ccccc32)NC1=O [CBP/EP300(3)]
Foxp3 expression, fold change over unstimulated naïve T cells [1]: decrease Foxp3 expression in iTreg cells in a dose dependent manner
Foxp3 protein expression [2]: decrease Foxp3 protein expression in iTreg cells
expression of LAG3, TIM3 and CTLA4 [3]: dose-dependent reduction in the expression of LAG3, TIM3 and CTLA4
GZMB expression (effector function of CD8+ T cells) [3]: did not affect effector function of CD8+ T cells
cytokine production (IFNγ, TNFα) by CD8+ T cells [4]: minimally affect

COc1ccc2c(c1)N(CCCNC(=O)c1cccc3c1N[C@H](C)C(=O)N3)CCC2 [CBP/EP300(4)]
Foxp3 expression, fold change over unstimulated naïve T cells [1]: decrease Foxp3 expression in iTreg cells in a dose dependent manner
Foxp3 protein expression [2]: decrease Foxp3 protein expression in iTreg cells
expression of LAG3, TIM3 and CTLA4 [3]: dose-dependent reduction in the expression of LAG3, TIM3 and CTLA4
GZMB expression (effector function of CD8+ T cells) [3]: did not affect effector function of CD8+ T cells
cytokine production (IFNγ, TNFα) by CD8+ T cells [4]: minimally affect
